Experimental data published in patent publication US12404252B2, “Salt of 2-amino-2-(2-(1-decyl-1H-1,2,3-triazol-4-yl)ethyl)propane-1,3-diol, and pharmaceutical composition containing same” (NEXTGEN BIOSCIENCE CO., LTD, priority 2021, dated 2025).
“Also recorded” adds a separate entry of the source.

Experiments:
[1] = test system: alopecia areata model (C3H/HeJ); assay: Alopecia areata model (C3H/HeJ); format: in vivo; conditions: C3H/HeJ mice, 30 mg/kg orally, 12 weeks
Description: The efficacy of Compound 1a against alopecia areata was evaluated using a model (C3H/HeJ) with spontaneous alopecia areata. The C3H/HeJ mice used in the test are animals that spontaneously develop alopecia areata with increasing age. […] 30 mg/kg of Compound 1a was administered orally to the mice for 12 weeks, and then disease-free ratio and AA lesion area were measured.

[2] = test system: unilateral ureteral obstruction (UUO) model; assay: Unilateral ureteral obstruction (UUO) renal fibrosis model; format: in vivo; conditions: UUO mice, 2 weeks
Description: The antifibrotic effect of Compound 1a in renal disease was evaluated using the unilateral ureteral obstruction (UUO) model, which is a renal fibrotic disease model. Kidney fibrosis was induced by unilateral ureteral obstruction of mice, and then Compound 1a at 10, 30, and 90 mg/kg/day and the positive control substance telmisartan at 30 mg/kg/day were orally administered to the mice once a day for 2 weeks.

[3] = test system: dextran sulfate sodium (DSS)-induced colitis model; assay: DSS-induced colitis mouse model, disease activity index; format: in vivo; conditions: DSS mice
Description: The effectiveness of Compound 1a against inflammatory bowel disease was evaluated using the dextran sulfate sodium (DSS)-induced colitis model. In the mouse model, inflammatory bowel disease was induced by administering DSS to mice at a concentration of 2.5% via drinking water. Mice were divided into a test group administered Compound 1a, a positive control group administered ozanimod or MTX (methotrexate), a vehicle group, and a normal control group, and each group had n=10. Compound 1, a compound of the present invention, was orally administered at doses of 5 and 10 mg/kg once a day for 7 days to the inflammatory bowel disease-induced model, and ozanimod as a positive control was administered orally at a dose of 5 mg/kg once a day, and MTX (methotrexate) as a positive control was administered intraperitoneally at a dose of 3 mg/kg three times a week.
DAI represents the total score of weight loss relative to initial weight, stool consistency, and degree of intestinal bleeding of the mouse. The criteria for calculation of DAI are shown in Table 10 below, and DAI was evaluated on days 0, 1, 2, 3, 4, 5, 6, 7, and 8.

[4] = Standard stock solution stability, 40° C./75±5% RH; format: physicochemical; conditions: 40° C./75% RH
Description: The stability of the crystalline compound was examined at 40° C./75±5% RH. Physical stability was examined through comparative XRPD analysis before and after the test, and chemical stability was examined by HPLC method. The experimental conditions used in the stability test for Compound 1a and the test results are as follows.
40° C./75±5% RH: Conditions in which the vial was open and upright.
(§1) A required amount (˜1 mg) of solid material was dissolved in 1 mL of a diluent (1:1 methanol/water), and the prepared solution was analyzed by HPLC.

[5] = pH stability and salinity stability, 40±2° C.; format: physicochemical
Description: pH and salinity stability tests for the hemifumirate salt of Compound 1 were performed at an initial target concentration of 2 mg/mL. The pH and salinity stability conditions used to evaluate the hemifumirate salt of Compound 1 and the evaluation results are as follows.
• 40±2° C.: Conditions in which the vial was capped and upright • Storage container for stability: 2-mL screw neck clear glass vial (manufactured by La-Pha-Pack) • Target concentration: ˜ 2 mg/mL (adding the sample to 1 mL of medium, followed by vortexing for 30 seconds) • 500 μL of the test mixture was dissolved in 500 μL of a diluent (1:1 methanol/water), and the prepared solution was analyzed by HPLC without filtration.

[6] = Standard stock solution stability, 60° C./75±5% RH; format: physicochemical; conditions: 60° C./75% RH, Initial
Description: The stability of the crystalline compound was under 60° C./75±5% RH conditions, and the purity thereof was examined by HPLC method. The experimental conditions used in the stability test for Compound 1a and the test results are as follows.
60° C./75±5% RH: Conditions in which the vial was open and upright.
as §1

[7] = Hygroscopicity test by DVS; format: physicochemical
Text: Dynamic vapor sorption (DVS) is a method that has been used for a long time to investigate the interactions between active pharmaceutical ingredients (APIs), and pharmaceutical preparations and water. Here, to analyze the water absorption rate of a sample at a specific temperature, measurements are made by exposing the sample to the desired relative humidity using a DVS water sorption analyzer (hygroscopicity analyzer) until the change in weight of the sample stabilizes.

[8] = Photostability test; format: physicochemical
Description: For a photostability test, 10 mg of Compound 1a was exposed to 1.2 million lux hours of ultraviolet and visible light at room temperature. For an oxidation stability test, 0.2 mL of 30% H2O2 and 1 mg of Compound 1a were placed in a 2-mL vial and stored at 25° C. for up to 24 hours. The photostability and oxidation stability conditions used to evaluate the fumarate salt of Compound 1 and the evaluation results are as follows.

Compound: CCCCCCCCCCn1cc(CCC(N)(CO)CO)nn1 [Compound 1a, 2-amino-2-(2-(1-decyl-1H-1,2,3-triazol-4-yl)ethyl) propane-1,3-diol]
- body weight versus control group [1]: no significant difference
- days when 100% alopecia areata was observed [1]: 84 days
- Kidney hydroxyproline ([2]; 10 mg/kg/day orally): statistically significantly decreased
- Kidney hydroxyproline ([2]; 30 mg/kg/day orally): statistically significantly decreased
- Kidney hydroxyproline ([2]; 90 mg/kg/day orally): statistically significantly decreased
- Kidney hydroxyproline (second statement, 'in particular', p<0.05) ([2]; 90 mg/kg/day orally): statistically significantly decreased
- clinical indicators (weight loss, stool consistency, intestinal bleeding) versus ozanimod ([3]; 5 mg/kg orally): equivalent to or higher than those of ozanimod
- clinical indicators (weight loss, stool consistency, intestinal bleeding) versus ozanimod ([3]; 10 mg/kg orally): equivalent to or higher than those of ozanimod
- Purity % ([4]; 1-week): 99.18%
- XRPD (physical stability) ([4]; 1-week): Almost similar (some changes
- XRPD (physical stability) ([4]; 2-week): crystalline form was maintained; also recorded: Almost similar (some changes
- Purity % ([4]; Initial): 99.29%
- XRPD (physical stability) ([4]; Initial): Crystalline
- Purity % ([5]; SGF/40° C., 1-week): 99.25%
- Purity % ([5]; SGF/40° C., 2-week): 99.29%
- Purity % ([5]; SGF/40° C., Initial): 99.13%
- Purity % ([5]; Saline (0.9% NaCl)/40° C., 1-week): 99.05%
- Purity % ([5]; Saline (0.9% NaCl)/40° C., Initial): 99.20%
- Purity % ([5]; pH 1.2 HCl buffer/40° C., 1-week): 98.26%
- Purity % ([5]; pH 1.2 HCl buffer/40° C., 2-week): 98.76%
- Purity % ([5]; pH 1.2 HCl buffer/40° C., Initial): 98.92%
- Purity % ([5]; pH 4.7 acetate buffer/40° C., 1-week): 99.46%
- Purity % ([5]; pH 4.7 acetate buffer/40° C., 2-week): 99.69%
- Purity % ([5]; pH 4.7 acetate buffer/40° C., Initial): 99.23%
- Purity % ([5]; pH 6.8 phosphate buffer/40° C., 1-week): 98.36%
- Purity % ([5]; pH 6.8 phosphate buffer/40° C., Initial): 99.20%
- Purity % [6]: 99.11%
- hygroscopicity (DVS evaluation, in words) ([7]; 90% RH, listed as Example 1): very low hygroscopicity
- DVS remark (adsorption at 90% RH) ([7]; water adsorption at 90% RH, DVS): less than 2%
- Purity % ([8]; Photostability 1.2 million lux hours exposed): 99.52%
- Purity % ([8]; Photostability 1.2 million lux hours unexposed): 99.70%
